Source: article PMC3946636 (Cancer chemotherapy and pharmacology, 2013)

Key:
relapsed myeloma = experiment: Clinical response by International Myeloma Working Group criteria; type: in vivo, human; conditions: 15 patients, all dose levels
[1] = in vivo
[2] = Plasma pharmacokinetics, LC-MS/MS, non-compartmental analysis; type: in vivo, human; conditions: for AUC(0-inf) / clearance / Cmax / half-life / Tmax / Vd: human, plasma, intravenous; for AUC(0-inf): Mean AUC0-∞ ± SD; for clearance: Mean CL ± SD; for Cmax: Mean Cmax ± SD; for half-life: Mean T1/2 ± SD; for Vd: Mean Vz ± SD
[3] = in human serum; cited from earlier work
[4] = dose level 30 + 30 mg/m^2, cycle 1 days 1 and 22 combined
[5] = dose level 30+50 mg/m^2, cycle 1 days 1 and 22 combined
[6] = dose level 50+50 mg/m^2, cycle 1 days 1 and 22 combined

For CN1CC[C@H](c2c(O)cc(O)c3c(=O)cc(-c4ccccc4Cl)oc23)[C@H](O)C1 [Flavopiridol], the Confirmed partial responses (relapsed myeloma) was “no confirmed partial responses”, the “Patients with progressive disease after the first cycle” value (relapsed myeloma) was 4 patients and the “Dehydration, patients with toxicity” value ([1]; human) was 2 n. The “Diaphoresis, patients with toxicity” value ([1]; human) was 1 n, the “Dizziness, patients with toxicity” value ([1]; human) was 1 n and the “Hyperglycemia, patients with toxicity” value ([1]; human) was 4 n. For the same molecule, the “Hyperkalemia, patients with toxicity” value ([1]; human) was 2 n, the “Hypocalcemia, patients with toxicity” value ([1]; human) was 3 n and the “Lymphopenia, patients with toxicity” value ([1]; human) was 5 n. The “Nausea, patients with toxicity” value ([1]; human) was 3 n, the “Vomiting, patients with toxicity” value ([1]; human) was 1 n and the “Serious adverse events, number” value [1] was “eight”. For the same molecule, the AUC(0-inf) [2, 4] was 7.78 ± 2.75 µM·h, the AUC(0-inf) [2, 5] was 4.75 ± 1.06 µM·h and the AUC(0-inf) [2, 6] was 14.2 ± 5.34 µM·h. For the same molecule, the clearance [2, 4] was 666 mL/min, the clearance [2, 5] was 1280 mL/min and the clearance [2, 6] was 643 mL/min. For the same molecule, the Cmax [2, 4] was 1850 ± 800 nM, the Cmax [2, 5] was 1090 ± 430 nM and the Cmax [2, 6] was 2410 ± 740 nM. For the same molecule, the half-life [2, 4] was 6.87 ± 3.24 h, the half-life [2, 5] was 3.65 ± 1.75 h and the half-life [2, 6] was 5.35 ± 2.83 h. For the same molecule, the Tmax ([2]; Mean Tmax ± SD, dose level 30 + 30 mg/m^2, cycle 1 days 1 and 22 combined) was 0.52 ± 0.03 h, the Tmax ([2]; Mean Tmax ± SD, dose level 30+50 mg/m^2, cycle 1 days 1 and 22 combined) was 1.18 ± 1.22 h and the Tmax ([2]; Mean Tmax ± SD, dose level 50+50 mg/m^2, cycle 1 days 1 and 22 combined) was 1.4 ± 1.67 h. The Vd [2, 4] was 368 ± 210 L, the Vd [2, 5] was 417 ± 242 L and the Vd [2, 6] was 317 ± 255 L. The Tmax ([2]; Tmax, outlier, 30/50 mg/m^2 dose level group, single profile) was 3 h, the “Average difference in AUC(0-∞), day 22 versus day 1” value ([2]; patients with PK data on both days (n=6), 95% CI −2.78 to 4.78, P=0.53) was 1.00 µM·h and the Protein binding [3] was “highly protein bound”.
